What all share (format): subcellular
In test [1] the test system is HeLa. The experiment in a line: Inhibition of DNA polymerase activity in human HeLa cell lysate at 10 uM in presence of [32P]-labeled template primer by TRAP assay.
The target of test [2] is Telomerase reverse transcriptase (Homo sapiens) (UniProt O14746). The experiment in a line: Inhibition of telomerase activity in human HeLa cell lysate at <=2.5 uM in presence of [32P]-labeled template primer by TRAP assay.
Test [3] has the same target. The test can be described thus: Inhibition of telomerase activity in human HeLa cell lysate at 0.039 to 10 uM in presence of [32P]-labeled template primer by TRAP assay.
Test [4] has the same target. The test can be described thus: Inhibition of telomerase activity in human HeLa cell lysate at 10 uM in presence of [32P]-labeled template primer by TRAP assay.
The subject of test [5] is HeLa. The test can be described thus: Inhibition of DNA polymerase activity in human HeLa cell lysate at <=2.5 uM in presence of [32P]-labeled template primer by TRAP assay.

Calls of active or inactive are those of the source. The calls are words filed in the database; no cut-off is given here.

Chain of Telomerase reverse transcriptase (Homo sapiens) (O14746 whole entry): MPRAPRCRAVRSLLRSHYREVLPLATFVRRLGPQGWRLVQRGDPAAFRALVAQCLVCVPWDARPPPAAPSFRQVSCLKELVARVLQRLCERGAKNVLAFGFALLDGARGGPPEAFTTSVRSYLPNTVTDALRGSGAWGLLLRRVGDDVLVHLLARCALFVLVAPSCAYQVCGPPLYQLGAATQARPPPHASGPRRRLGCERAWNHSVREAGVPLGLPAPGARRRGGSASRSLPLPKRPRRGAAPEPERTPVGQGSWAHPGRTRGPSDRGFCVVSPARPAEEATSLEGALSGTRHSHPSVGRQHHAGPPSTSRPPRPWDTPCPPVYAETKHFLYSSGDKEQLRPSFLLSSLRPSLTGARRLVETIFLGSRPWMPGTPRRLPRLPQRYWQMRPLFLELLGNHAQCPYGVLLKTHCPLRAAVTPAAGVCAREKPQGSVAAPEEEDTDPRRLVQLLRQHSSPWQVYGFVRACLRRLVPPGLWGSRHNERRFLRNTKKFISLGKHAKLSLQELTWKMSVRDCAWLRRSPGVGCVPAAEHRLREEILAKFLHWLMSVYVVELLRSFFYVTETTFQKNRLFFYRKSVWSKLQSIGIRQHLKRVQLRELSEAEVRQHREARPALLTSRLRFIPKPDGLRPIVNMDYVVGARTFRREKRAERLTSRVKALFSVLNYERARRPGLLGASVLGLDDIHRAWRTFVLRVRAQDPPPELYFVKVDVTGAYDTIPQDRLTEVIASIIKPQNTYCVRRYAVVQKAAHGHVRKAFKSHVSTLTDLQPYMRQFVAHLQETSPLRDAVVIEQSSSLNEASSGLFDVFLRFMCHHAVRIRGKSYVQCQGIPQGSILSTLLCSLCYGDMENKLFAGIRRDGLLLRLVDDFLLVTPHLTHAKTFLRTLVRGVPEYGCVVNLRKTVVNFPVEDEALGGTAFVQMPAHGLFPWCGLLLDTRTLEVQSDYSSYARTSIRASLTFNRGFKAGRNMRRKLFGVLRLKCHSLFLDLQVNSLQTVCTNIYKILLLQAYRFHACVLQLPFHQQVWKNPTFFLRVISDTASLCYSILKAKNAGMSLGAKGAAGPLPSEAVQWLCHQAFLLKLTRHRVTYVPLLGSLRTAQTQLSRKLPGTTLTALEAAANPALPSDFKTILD

Turning to `CN(C)c1ccc(Nc2c3ccc(NC(=O)CCN4CCCC4)cc3nc3cc(NC(=O)CCN4CCCC4)ccc23)cc1`, the inhibition entry (in the test with HeLa [1]; in test [2]; in test [3]; in test [4]) was “Active” throughout. Further, the inhibition entry with HeLa [5] was “inactive”.

The values above are taken from ChEMBL document CHEMBL4393695, “Thiazole orange - Spermine conjugate: A potent human telomerase inhibitor comparable to BRACO-19” (Eur J Med Chem, 2019).
